Results as given in patent US6495594B2, “Biologically active analogs of discodermolide” (Harbor Branch Oceanographic Institution, Inc., priority 2000, dated 2002).

Columns and labels:
[1] = system: A549 human adenocarcinoma; experiment: In vitro proliferation of A549 cells (MTT); assay type: cell-based; conditions: 72 hours exposure; for IC50: value in parentheses
Method: Discodermolide and discodermolide analogs were analyzed as to their effects on proliferation of A549 human adenocarcinoma and P388 murine leukemia cell lines. P388 cells were obtained from Dr. R. Camalier, National Cancer Institute, Bethesda, MD, and A549 cells were obtained from American Type Culture Collection, Rockville, MD. All cell lines were maintained in tissue culture medium (TCM; Roswell Park Memorial Institute RPMI 1640 supplemented with 100 U/mL penicillin, […], 60 […], 18 mM HEPES, 0.05 mg/mL gentamicin (Life Technologies, Gaithersburg, MD) and 10% fetal bovine serum) and cultured in plastic tissue culture flasks at 37° C. in humidified air containing 5% CO2. Stock cultures of P388 cells were subcultured 1:20 in fresh TCM every 2 to 3 days. Stock cultures of A549 cells were subcultured 1:10 every 3 to 4 days. To assess the antiproliferative effects of agents against the cells, 200 μL cultures (96-well tissue culture plates, Nunc, Denmark) were established at 1 ×10^5 cells/mL in TCM or TCM containing the test agent at 0.03-5.0 μg/mL. After 48-h exposures, P388 cells were enumerated using 3-[4,5-dimethylthiazol-2-yl]-2,5-diphenyltetrazolium bromide (MTT) as described in the literature (M. C. Alley, et al., Cancer Res. 48:589, 1988). A549 cells were enumerated in the same manner after 72 hours exposure. The results were expressed as percent inhibition compared to the negative (no drug) control. Positive drug controls of varying dilutions of 5-fluorouracil and adriamycin (Sigma Chemical Co., St Louis, MO) were included to monitor drug sensitivity of the cell line.
To quantitate the effects on cell proliferation and resulting IC50 values, 75 μL of warm growth media containing 5 mg/mL MTT is added to each well, cultures returned to the incubator, and left undisturbed for 3 hours. To spectrophotometrically quantitate formation of reduced formazan, plates are centrifuged (500×g, 10 minutes), culture fluids removed by aspiration, and 200 μL of acidified isopropanol (2 mL concentrated HCl /liter isopropanol) added per well. The absorbance of the resulting solutions is measured in a plate reader (TECAN Spectra SLT; TECAN U.S., Research Triangle Park, N.C.) at 570 nm and a 650 nm reference filter. The absorbance of test wells is divided by the absorbance of drug-free wells, and the concentration of agent that results in 50% of the absorbance of untreated cultures (IC50) is determined by linear regression of logit-transformed data (D. J. Finney, Statistical Method in Biological Assay, third ed., pp. 316-348, Charles Griffin Co., London, 1978). A linear relationship between tumor cell number and formazan production has been routinely observed over the range of cell densities observed in these experiments. The two standard drug controls (indicated above) are included in each assay as a check to monitor the drug sensitivity of each of the cell lines and IC50 values are determined for each drug-cell combination.

[2] = system: purified bovine brain tubulin; experiment: Tubulin polymerization (optical density at 350 nm); assay type: biochemical; design: key to Purified tubulin polymerization by 10 μM / Purified tubulin polymerization at 10 μM: −: no effect; +/−: minimal or questionable effect; +: weak effect; ++: strong effect; +++: very strong effect equivalent to discodermolide; conditions: 10 μM compound; for Purified tubulin polymerization by 10 μM / Maximum polymerization relative to that induced by discodermolide / Purified tubulin polymerization at 10 μM: 1 mg/mL tubulin; for Purified tubulin polymerization by 10 μM / Purified tubulin polymerization at 10 μM: subjective rating; for Purified tubulin polymerization by 10 μM: Table 11; for Purified tubulin polymerization at 10 μM: Table 12
Method: (§1) Compounds were tested at 10 μM with 1 mg/mL tubulin. The temperature was varied during the course of the experiment as follows: the experiment was begun with an initial temperature of 4° C. and held for 1 minute; the temperature was then increased to 35° C. at a rate of 1° C./minute, held at 35° C. for 1 minute, decreased to 4° C. at a rate of 2° C/minute, and finally held at 4° C. for 14 minutes. The curves shown are for compounds: discodermolide (I); 2-desmethyldiscodermolide (II); 19-desaminocarbonyldiscodermolide (III); 2-epidiscodermolide (IV); and 3-deoxy-2A-discodermolide (VI).
as §1, with “C./minute,” for “C/minute,”, “for” for “for compounds:”, “8,21,23-hexahydrodiscodermolide (XII)” for “2-desmethyldiscodermolide (II); 19-desaminocarbonyldiscodermolide (III); 2-epidiscodermolide (IV);”, “7-deoxy-8,21,23-hexahydrodiscodermolide (XIII).” for “3-deoxy-2A-discodermolide (VI).”
Polymerization of purified bovine brain tubulin (Cytoskeleton Inc., Denver, Colo.) was followed by changes in the optical density of tubulin solutions at 350 nm in a Hitachi U-3010 spectrophotometer equipped with a SPR-10 electronic thermostatted cell holder. Stock solutions of tubulin were diluted on ice in G-PEM buffer (1 mM GTP, 80 mM PIPES, 1 mM EGTA, 0.5 mM magnesium chloride; pH 6.8) to a final concentration of 1 mg/mL. The instrument was zeroed on this solution at 4° C. Discodermolide, and its analogs, were then added to the tubulin solution to a final concentration of 10 μM, quickly mixed, and the absorbance monitored over a period of 61 minutes. Within this time the temperature of the thermoelectric cell holder was held at 4° C. for 1 minute, increased to 35° C. at a rate of 1° C./minute, reduced back to 4° C. at a rate of 2° C./minute, and held at 4° C. for an additional 14 minutes.

SMILES | IC50 A549 cells [1] [µg/mL] | IC50 [1] [nM] | Level of tubulin polymerization induced [2] | Stability of polymerized tubulin when held at 4° C. [2] | Purified tubulin polymerization by 10 μM [2] | Maximum polymerization relative to that induced by discodermolide [2] | Purified tubulin polymerization at 10 μM [2]
C=CC=CC(C)C(OC(N)=O)C(C)C(O)C(C)CC(C)=CC(C)C(O)C(C)C=CC(O)CC1OC(=O)CC(O)C1C (centres unmarked) [2-Desmethyldiscodermolide (II), 2-desmethyldiscodermolide] | 0.07 | 120 | almost equivalent to those of the parent compound discodermolide | stable | ++ |  | 
C=C/C=C\[C@H](C)[C@H](OC(N)=O)[C@@H](C)[C@H](O)[C@@H](C)C/C(C)=C\[C@H](C)[C@@H](O)[C@@H](C)/C=C\[C@@H](O)C[C@@H]1OC(=O)[C@@H](C)[C@@H](O)[C@H]1C [2-Epidiscodermolide (IV), 2-epidiscodermolide] | 0.04 | 67 | low levels | relatively stable | ++ | 30-50% | 
CCCCC(C)C(OC(N)=O)C(C)C(O)C(C)CC(C)=CC(C)C(O)C(C)CCCCC1OC(=O)C(C)C(O)C1C (centres unmarked) [7-deoxy-8,21,23-hexahydrodiscodermolide] | 0.22 | 377 | low levels | relatively stable |  | 39% | ++
CCCCC(C)C(OC(N)=O)C(C)C(O)C(C)CC(C)=CC(C)C(O)C(C)CCC(O)CC1OC(=O)C(C)C(O)C1C (centres unmarked) [8,21,23-Hexahydrodiscodermolide (XII), 8,21,23-hexahydrodiscodermolide] | 0.04 | 67.7 | strong | relatively stable |  | approximately 80% | +++
C=CC=CC(C)C(O)C(C)C(O)C(C)CC(C)=CC(C)C(O)C(C)C=CC(O)CC1OC(=O)C(C)C(O)C1C (centres unmarked) [19-Desaminocarbonyldiscodermolide (III), 19-desaminocarbonyldiscodermolide] | 0.045 | 74 | low levels | relatively stable | + | 30-50% | 
